Reference: patent US20260317344A1, “EGFR INHIBITORS FOR TREATING DISEASE” (BLOSSOMHILL THERAPEUTICS, INC., priority 2023, published 2026)

Columns and labels:
EGFR (L858R/T790M/C797S) = EGFR (L858R/T790M/C797S) (Homo sapiens, UniProt P00533, C797S/L858R/T790M); experiment: HotSpot radiometric kinase assay, inhibition of EGFR L858R/T790M/C797S mutant; format: biochemical; details: 33P ATP, room temperature, 120 m
Summary of the method: (§1)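 Radiometric filter-binding format: ATP plus 33P-ATP ([…]) was added about 20 min after compound to kinase and substrate in HEPES pH 7.5 buffer with Mg2+, EGTA, Brij35, BSA, vanadate, DTT and 1% DMSO. After 120 min at room temperature, reactions were spotted on P81 paper and washed in phosphoric acid; IC50 values fitted.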

EGFR (D746-750) = EGFR (D746-750) (Homo sapiens, UniProt P00533, DEL746-750); experiment: HotSpot radiometric kinase assay, inhibition of EGFR 746-750 mutant; format: biochemical; details: 33P ATP, room temperature, 120 m
Sequence of EGFR (D746-750) (P00533 with tags, fused parts or gaps DEL746-750): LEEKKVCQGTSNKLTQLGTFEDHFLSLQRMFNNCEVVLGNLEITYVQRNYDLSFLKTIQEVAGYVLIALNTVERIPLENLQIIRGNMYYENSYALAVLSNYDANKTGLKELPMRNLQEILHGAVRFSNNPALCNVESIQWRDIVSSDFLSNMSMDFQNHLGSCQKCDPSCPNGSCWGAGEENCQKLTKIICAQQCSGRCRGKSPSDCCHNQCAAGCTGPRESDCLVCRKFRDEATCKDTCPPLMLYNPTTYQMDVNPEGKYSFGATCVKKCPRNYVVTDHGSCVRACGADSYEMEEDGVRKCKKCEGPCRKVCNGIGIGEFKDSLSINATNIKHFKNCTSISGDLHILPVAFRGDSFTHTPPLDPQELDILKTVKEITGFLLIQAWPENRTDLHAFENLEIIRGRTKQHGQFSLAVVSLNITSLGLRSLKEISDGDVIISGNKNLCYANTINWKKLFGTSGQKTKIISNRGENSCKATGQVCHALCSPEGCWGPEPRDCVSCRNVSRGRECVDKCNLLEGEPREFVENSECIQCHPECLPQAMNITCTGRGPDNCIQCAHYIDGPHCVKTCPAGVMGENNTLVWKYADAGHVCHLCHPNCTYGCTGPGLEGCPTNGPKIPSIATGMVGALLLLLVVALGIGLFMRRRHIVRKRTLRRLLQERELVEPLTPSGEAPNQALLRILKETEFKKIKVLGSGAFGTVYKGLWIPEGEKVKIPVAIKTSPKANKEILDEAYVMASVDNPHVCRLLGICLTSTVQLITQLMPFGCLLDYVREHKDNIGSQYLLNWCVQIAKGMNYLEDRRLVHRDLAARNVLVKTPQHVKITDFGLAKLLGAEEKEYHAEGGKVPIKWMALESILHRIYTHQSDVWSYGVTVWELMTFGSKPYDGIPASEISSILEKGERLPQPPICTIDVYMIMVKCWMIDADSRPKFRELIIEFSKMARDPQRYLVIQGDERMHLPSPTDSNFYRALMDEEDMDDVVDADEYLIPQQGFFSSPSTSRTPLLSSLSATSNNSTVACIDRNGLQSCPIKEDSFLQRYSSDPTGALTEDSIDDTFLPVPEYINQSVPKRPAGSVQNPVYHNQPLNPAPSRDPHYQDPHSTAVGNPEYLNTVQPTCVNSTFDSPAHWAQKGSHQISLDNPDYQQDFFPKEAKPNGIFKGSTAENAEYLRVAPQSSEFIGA
Summary of the method: as §1

EGFR (D746-750/C797S) = EGFR (D746-750/C797S) (Homo sapiens, UniProt P00533, C797S/DEL746-750); experiment: HotSpot radiometric kinase assay, inhibition of EGFR 746-750/C797S mutant; format: biochemical; details: 33P ATP, room temperature, 120 m
Sequence of EGFR (D746-750/C797S) (P00533 with tags, fused parts or gaps DEL746-750/C797S): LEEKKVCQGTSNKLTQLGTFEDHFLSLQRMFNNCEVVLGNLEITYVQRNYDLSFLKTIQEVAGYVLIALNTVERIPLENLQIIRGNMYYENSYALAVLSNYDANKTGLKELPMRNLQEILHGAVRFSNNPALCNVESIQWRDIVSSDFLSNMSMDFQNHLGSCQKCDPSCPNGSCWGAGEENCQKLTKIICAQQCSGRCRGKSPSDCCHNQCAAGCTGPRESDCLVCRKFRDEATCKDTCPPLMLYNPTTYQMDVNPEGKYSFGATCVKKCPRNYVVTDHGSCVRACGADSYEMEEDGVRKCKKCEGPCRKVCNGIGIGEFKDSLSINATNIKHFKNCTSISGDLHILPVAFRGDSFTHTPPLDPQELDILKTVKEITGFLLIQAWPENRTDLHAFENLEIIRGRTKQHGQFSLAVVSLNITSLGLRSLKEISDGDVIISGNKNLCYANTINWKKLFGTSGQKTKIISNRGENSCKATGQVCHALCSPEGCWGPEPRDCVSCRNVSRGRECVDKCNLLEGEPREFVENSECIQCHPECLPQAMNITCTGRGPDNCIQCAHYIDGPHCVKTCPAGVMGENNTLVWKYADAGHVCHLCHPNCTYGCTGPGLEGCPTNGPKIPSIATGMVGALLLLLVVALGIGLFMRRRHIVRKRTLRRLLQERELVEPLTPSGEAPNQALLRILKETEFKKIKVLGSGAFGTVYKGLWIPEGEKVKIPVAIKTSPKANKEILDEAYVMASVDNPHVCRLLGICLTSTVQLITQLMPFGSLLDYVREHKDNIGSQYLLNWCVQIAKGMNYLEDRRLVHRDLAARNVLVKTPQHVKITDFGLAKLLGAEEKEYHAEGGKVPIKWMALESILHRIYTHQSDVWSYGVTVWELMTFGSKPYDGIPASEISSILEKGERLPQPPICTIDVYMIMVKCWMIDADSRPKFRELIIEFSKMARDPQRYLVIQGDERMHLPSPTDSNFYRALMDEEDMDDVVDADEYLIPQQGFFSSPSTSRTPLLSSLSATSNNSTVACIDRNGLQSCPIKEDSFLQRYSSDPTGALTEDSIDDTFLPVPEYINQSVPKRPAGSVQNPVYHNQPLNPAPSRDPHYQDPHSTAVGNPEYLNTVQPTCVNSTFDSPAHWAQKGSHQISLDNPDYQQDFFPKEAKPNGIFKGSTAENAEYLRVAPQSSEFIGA
Summary of the method: as §1

EGFR (D770_N771insNPG) = EGFR (D770_N771insNPG) (Homo sapiens, UniProt P00533, INS770NPG); experiment: HotSpot radiometric kinase assay, inhibition of EGFR (D770_N771insNPG) mutant; format: biochemical; details: 33P ATP, room temperature, 120 m
Sequence of EGFR (D770_N771insNPG) (P00533 with tags, fused parts or gaps INS770NPG limits assumed): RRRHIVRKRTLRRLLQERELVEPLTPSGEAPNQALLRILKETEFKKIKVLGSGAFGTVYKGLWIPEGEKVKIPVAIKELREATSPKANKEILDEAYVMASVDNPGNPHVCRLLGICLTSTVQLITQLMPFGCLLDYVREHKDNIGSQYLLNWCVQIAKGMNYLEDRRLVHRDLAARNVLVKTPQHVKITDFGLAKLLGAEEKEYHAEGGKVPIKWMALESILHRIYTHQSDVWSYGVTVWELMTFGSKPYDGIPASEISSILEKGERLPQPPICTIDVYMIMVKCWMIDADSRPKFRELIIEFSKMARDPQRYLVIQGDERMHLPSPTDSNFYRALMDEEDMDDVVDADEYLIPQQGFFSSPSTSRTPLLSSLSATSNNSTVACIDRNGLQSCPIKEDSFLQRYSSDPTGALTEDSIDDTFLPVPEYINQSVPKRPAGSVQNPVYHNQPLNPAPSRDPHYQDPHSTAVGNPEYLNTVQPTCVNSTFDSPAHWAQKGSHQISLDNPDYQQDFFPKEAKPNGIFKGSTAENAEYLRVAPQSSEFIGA
Summary of the method: as §1

[1] = target: T1, pEGFR, PC-9 cells (d746-750 EGFR) (Homo sapiens, UniProt P00533, DEL746-750); experiment: Cellular EGFR phosphorylation assay (LANCE Ultra TR-FRET) in PC-9 cells; format: cell-based; details: 4 hours at 37° C., read-out: PC-9 pEGFR IC50
T1 construct: pEGFR (Tyr1068) TR-FRET
T1 sequence (P00533 with tags, fused parts or gaps DEL746-750): as the sequence (P00533 with tags, fused parts or gaps DEL746-750) above
Summary of the method: (§2)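 4 h compound treatment at 37 °C, 9-point 3-fold titration. EGF (40 ng/mL, final 10 min) in A431 only. Tyr1068 phosphorylation measured by TR-FRET and IC50 fitted.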

[2] = target: T2, pEGFR, NCI-H1975 cells (L858R/T790M EGFR) (Homo sapiens, UniProt P00533, L858R/T790M); experiment: Cellular EGFR phosphorylation assay (LANCE Ultra TR-FRET) in NCI-H1975 cells; format: cell-based; details: 4 hours at 37° C., read-out: H1975 pEGFR IC50
T2 construct: pEGFR (Tyr1068) TR-FRET
Summary of the method: as §2

[3] = target: T3, pEGFR, A431 cells (wildtype EGFR) (Homo sapiens, UniProt P00533); experiment: Cellular EGFR phosphorylation assay (LANCE Ultra TR-FRET) in A431 cells; format: cell-based; details: 4 hours at 37° C., 40 ng/mL EGF for the final 10 minutes, read-out: A431 pEGFR IC50
T3 construct: pEGFR (Tyr1068) TR-FRET
Summary of the method: as §2

PC-9 cells = experiment: 5-Day CellTiter Glo (CTG) cell proliferation assay, PC-9; format: cell-based; details: Homo sapiens; PC-9 cells (d746-750 EGFR), 5-day CTG proliferation, 120 hours; read-out: PC-9 IC50
Summary of the method: (§3)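 Proliferation of EGFR-driven NSCLC cells was scored as CellTiter-Glo 2.0 luminescence after a 5-day (120 h) incubation with compounds in 9 doses. IC50 values came from the dose-response curves.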

NCI-H1975 cells = experiment: 5-Day CellTiter Glo (CTG) cell proliferation assay, NCI-H1975; format: cell-based; details: Homo sapiens; NCI-H1975 cells (L858R/T790M EGFR), 5-day CTG proliferation, 120 hours; read-out: H1975 IC50
Summary of the method: as §3

HCC827 cells = experiment: 5-Day CellTiter Glo (CTG) cell proliferation assay, HCC827; format: cell-based; details: Homo sapiens; HCC827 cells (d746-750 EGFR), 5-day CTG proliferation, 120 hours; read-out: HCC827 IC50
Summary of the method: as §3

[4] = test system: BaF3 cells with engineered EGFR L858R/T790M/C797S; experiment: 3-Day CellTiter Glo (CTG) cell proliferation assay, BaF3 EGFR L858R/T790M/C797S; format: cell-based; details: Mus musculus, 3-day CTG proliferation, 72 hours
Summary of the method: (§4)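 Luminescent ATP read-out (CellTiter-Glo 2.0) after 72 h compound exposure gives IC50 values. BaF3 transgenic cells, one thousand per well, received a nine-dose series and were kept at 37 °C under 5% CO2.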

[5] = test system: BaF3 cells with engineered EGFR L858R/C797S; experiment: 3-Day CellTiter Glo (CTG) cell proliferation assay, BaF3 EGFR L858R/C797S; format: cell-based; details: Mus musculus, 3-day CTG proliferation, 72 hours
Summary of the method: as §4

[6] = test system: BaF3 cells with engineered EGFR d746-750/T790M; experiment: 3-Day CellTiter Glo (CTG) cell proliferation assay, BaF3 EGFR d746-750/T790M; format: cell-based; details: Mus musculus; BaF3 EGFR d746-750/T790M cells, 3-day CTG proliferation, 72 hours
Summary of the method: as §4

Structure (SMILES)	IC50 (EGFR (L858R/T790M/C797S)) [nM]	IC50 (EGFR (D746-750)) [nM]	IC50 (EGFR (D746-750/C797S)) [nM]	IC50 (EGFR (D770_N771insNPG)) [nM]	IC50 [1] [nM]	IC50 [2] [nM]	IC50 [3] [nM]	IC50 (PC-9 cells) [nM]	IC50 (NCI-H1975 cells) [nM]	IC50 (HCC827 cells) [nM]	IC50 [4] [nM]	IC50 [5] [nM]	IC50 [6] [nM]
CCOc1nn(CCO)c2c1/C=C/c1n[nH]c3cnc(cc13)-c1c(C)nn(C)c1O[C@@H](C)CN(C)C2 [Ex. 44, 2-[(10S,17E)-16-ethoxy-6,8,10,12-tetramethyl-2,8,10,11,12,13-hexahydro-14H-5,3-(azenometheno)tripyrazolo[3,4-f:3′,4′-j:4″,3″-n][1,4]oxazacyclopentadecin-14-yl]ethan-1-ol]	0.57	0.26	0.62	0.17	1.01	1.92	9.94	0.84	1.05	0.29	0.57	0.05	1.18
CCOc1nn([C@@H](C)CO)c2c1/C=C/c1n[nH]c3c(C)nc(cc13)-c1cnn(C)c1O[C@@H](C)CN(C)C2 [Ex. 45, (2S)-2-[(10S,17E)-16-ethoxy-8,10,12,20-tetramethyl-2,8,10,11,12,13-hexahydro-14H-5,3-(azenometheno)tripyrazolo[3,4-f:3′,4′-j:4″,3″-n][1,4]oxazacyclopentadecin-14-yl]propan-1-ol]	0.53	0.28	0.95	0.69	2.15	1.24	12.2	3.31	1.09	1.12	0.47	0.12	1.04
Cc1nn(C)c2c1-c1cc3c(n[nH]c3cn1)/C=C/c1c(C#N)nn([C@@H](C)CO)c1CN(C)C[C@H](C)O2 [Ex. 48, (10S,17E)-14-[(2S)-1-hydroxypropan-2-yl]-6,8,10,12-tetramethyl-2,10,11,12,13,14-hexahydro-8H-5,3-(azenometheno)tripyrazolo[3,4-f:3′,4′-j:4″,3″-n∥1,4]oxazacyclopentadecine-16-carbonitrile]	0.37	0.18	0.63	0.23	3.14	6.12	37	17.8	55.6	2.08	1.21	0.16	17.1
Cc1nn(C)c2c1-c1cc3c(n[nH]c3cn1)/C=C/c1c(OCC#N)nn([C@@H](C)CO)c1CN(C)C[C@H](C)O2 [Ex. 53, {[(10S,17E)-14-[(2S)-1-hydroxypropan-2-yl]-6,8,10,12-tetramethyl-2,10,11,12,13,14-hexahydro-8H-5,3-(azenometheno)tripyrazolo[3,4-f:3′,4′-j:4″,3″-n][1,4]oxazacyclopentadecin-16-yl]oxy}acetonitrile]	0.67	0.37	1.12	0.45	2.57	8.74	21	2.94	15.7	1.1	1.57	0.18	4.31
CCOc1nn([C@@H](C)CO)c2c1/C=C/c1n[nH]c3cnc(cc13)-c1c(C)nn(C)c1O[C@@H](C)[C@H]1CCCN1C2 [Ex. 56, (2S)-2-[(8aR,9S,19E)-1-ethoxy-9,11,13-trimethyl-7,8,8a,9,11,17-hexahydro-6H-14,16-(azenometheno)tripyrazolo[3,4-f:3′,4′-j:4″,3″-n]pyrrolo[2,1-c][1,4]oxazacyclopentadecin-3(4H)-yl]propan-1-ol]	0.98	0.45	1.11	0.67	0.82	1.26	8.41	0.32	0.92	0.28	0.61	0.05	0.48
Cc1nn([C@@H](C)CO)c2c1/C=C/c1n[nH]c3c(C)nc(cc13)-c1c(C)nn(C)c1O[C@@H](C)CN(C)C2 [Ex. 57, (2S)-2-[(10S,17E)-6,8,10,12,16,20-hexamethyl-2,8,10,11,12,13-hexahydro-14H-5,3-(azenometheno)tripyrazolo[3,4-f:3′,4′-j:4″,3″-n][1,4]oxazacyclopentadecin-14-yl]propan-1-ol]	0.86	0.8	1.38	4.83	11.3	10.5	26.1	21.9	68.2	8.59	1.77	0.69	61.8
CCOc1nn([C@@H](C)CO)c2c1/C=C/c1n[nH]c3cnc(cc13)-c1c(C)nn(C)c1OCCN(C)C2 [Ex. 59, (2S)-2-[(17E)-16-ethoxy-6,8,12-trimethyl-2,8,10,11,12,13-hexahydro-14H-5,3-(azenometheno)tripyrazolo[3,4-f:3′,4′-j:4″,3″-n][1,4]oxazacyclopentadecin-14-yl]propan-1-ol]	0.99	0.37	1.33	1.13	1.96	1.43	5.29	3.21	15.7	0.94	0.91	0.18	3.62
CCOc1nn(CCO)c2c1/C=C/c1n[nH]c3cnc(cc13)-c1c(CC)nn(C)c1O[C@@H](C)CN(CC)C2 [Ex. 74, 2-[(10S,17E)-16-ethoxy-6,12-diethyl-8,10-dimethyl-2,8,10,11,12,13-hexahydro-14H-5,3-(azenometheno)tripyrazolo[3,4-f:3′,4′-j:4″,3″-n][1,4]oxazacyclopentadecin-14-yl]ethan-1-ol]	1.5	0.55	1.83	0.66	1.54	5.16	8.81	0.68	79.9	0.72	1.34	0.04	6.61
